Details: Transpiration method

CCC1COC(=O)O1 (stereo unspecified) [1,2-butylene carbonate]
Liquid
Details	vapor or sublimation pressure [kPa]
288.6 K	0.00186
293.5 K	0.00284
298.5 K	0.00453
303.4 K	0.00649
307.3 K	0.0087
310.3 K	0.01164
313.3 K	0.01439
316.3 K	0.01837
319.3 K	0.02281
322.5 K	0.02805
327.4 K	0.04092
330.3 K	0.04839
333.6 K	0.06415
338.7 K	0.086
343.8 K	0.1159

CC1COC(=O)O1 (stereo unspecified) [4-methyl-1,3-dioxolan-2-one]
Liquid
Details	vapor or sublimation pressure [kPa]
298.4 K	0.0085
303.3 K	0.01247
308.2 K	0.0181
311.3 K	0.0223
313.2 K	0.02529
318.2 K	0.03723
321.2 K	0.04503
322.7 K	0.05193
324.2 K	0.05893
326.6 K	0.06788
329.6 K	0.08307
332.7 K	0.1019
335.7 K	0.1281
337.7 K	0.1375
338.8 K	0.1525
340.8 K	0.1721
341.8 K	0.1787
344.9 K	0.2178

O=C1OCCO1 [ethylene carbonate]
Details	vapor or sublimation pressure [kPa]
280.6 K, Crystal	0.00062
286.2 K, Crystal	0.00119
291.3 K, Crystal	0.002
295.5 K, Crystal	0.00325
299.4 K, Crystal	0.00472
303.2 K, Crystal	0.00675
304.4 K, Crystal	0.00785
306.4 K, Crystal	0.00907
308.4 K, Crystal	0.01077
310.3 K, Liquid	0.012
314.4 K, Liquid	0.01615
314.5 K, Liquid	0.01614
317.3 K, Liquid	0.02
320.3 K, Liquid	0.02499
320.4 K, Liquid	0.02475
323.5 K, Liquid	0.0305
324.4 K, Liquid	0.03281
327.4 K, Liquid	0.03939
328.6 K, Liquid	0.04312
331.3 K, Liquid	0.05119
333.6 K, Liquid	0.05962
335.4 K, Liquid	0.06848
338.7 K, Liquid	0.08312
341.4 K, Liquid	0.0978
342.3 K, Liquid	0.1031
343.8 K, Liquid	0.1094
345.2 K, Liquid	0.1213
347.6 K, Liquid	0.1379
349 K, Liquid	0.154
352.4 K, Liquid	0.1869
354 K, Liquid	0.2037
357.5 K, Liquid	0.2473
358.9 K, Liquid	0.2642
360.6 K, Liquid	0.292
363.2 K, Liquid	0.3283
364.1 K, Liquid	0.3486
366.7 K, Liquid	0.4047
369.5 K, Liquid	0.4694

O=C1OCC(CO)O1 (stereo unspecified) [glycerine carbonate]
Liquid
Details	vapor or sublimation pressure [kPa]
330.2 K	0.00029
333.2 K	0.00039
338.3 K	0.00062
343.2 K	0.00091
348.4 K	0.00144
351.2 K	0.00173
355.5 K	0.0025
359.8 K	0.00368
360.6 K	0.00362
363.7 K	0.00433
366.4 K	0.00542
369.4 K	0.00681
371.8 K	0.00782
373.2 K	0.00886
377.2 K	0.01171
384.5 K	0.02019
387.3 K	0.02392
388 K	0.02471
392.7 K	0.03339
398.5 K	0.04694
